Results published in patent US9994546B2, “Cyclopropylamines as LSD1 inhibitors” (Incyte Corporation, priority 2014, dated 2018).

biological target: LSD-1 enzyme (Homo sapiens (Human), UniProt O60341); assay: LANCE LSD1/KDM1A demethylase assay (LSD1 histone demethylase biochemical assay); settings: 1 nM LSD-1 enzyme, 1 hour preincubation at 25° C., 0.4 μM biotin-labeled Histone H3 peptide substrate
Method: LANCE LSD1/KDM1A demethylase assay—10 μL of 1 nM LSD-1 enzyme (ENZO BML-SE544-0050) in the assay buffer (50 mM Tris, pH 7.5, 0.01% Tween-20, 25 mM NaCl, 5 mM DTT) were preincubated for 1 hour at 25° C. with 0.8 μL compound/DMSO dotted in black 384 well polystyrene plates. […] After stopping the reactions plates were incubated for 30 minutes and read on a PHERAstar FS plate reader (BMG Labtech).

| Compound | IC50 |
| --- | --- |
| N#CCC1(N2CCC(NC3CC3c3ccccc3)CC2)CCC1 (racemic) [Example 1, (1-{4-[(trans-2-Phenylcyclopropyl)amino]piperidin-1-yl}cyclobutyl)acetonitrile] | ≤ 100 nM |
| CN1CC(CC#N)(N2CCC(N[C@@H]3C[C@H]3c3ccccc3)CC2)C1 (relative stereo) [Example 2, (1-Methyl-3-{4-[(trans-2-phenylcyclopropyl)amino]piperidin-1-yl}azetidin-3-yl)acetonitrile] | ≤ 100 nM |
| N#CCC1(N2CCC(N[C@@H]3C[C@H]3c3ccccc3)CC2)CNC1 (relative stereo) [Example 3, (3-{4-[(trans-2-Phenylcyclopropyl)amino]piperidin-1-yl}azetidin-3-yl)acetonitrile] | ≤ 100 nM |
| N#CCC1(N2CCC(N[C@@H]3C[C@H]3c3ccccc3)CC2)CN(Cc2ccccc2)C1 (relative stereo) [Example 4, (1-Benzyl-3-{4-[(trans-2-phenylcyclopropyl)amino]piperidin-1-yl}azetidin-3-yl)acetonitrile] | ≤ 100 nM |
| N#CCC1(N2CCC(N[C@@H]3C[C@H]3c3ccccc3)CC2)CN(CCC(=O)O)C1 (relative stereo) [Example 5, 3-(3-(Cyanomethyl)-3-{4-[(trans-2-phenylcyclopropyl)amino]piperidin-1-yl}azetidin-1-yl)propanoic acid] | ≤ 100 nM |
| CC(=O)N1CC(CC#N)(N2CCC(N[C@@H]3C[C@H]3c3ccccc3)CC2)C1 (relative stereo) [Example 6, (1-Acetyl-3-{4-[(trans-2-phenylcyclopropyl)amino]piperidin-1-yl}azetidin-3-yl)acetonitrile] | ≤ 100 nM |
| N#CCC1(N2CCC(N[C@@H]3C[C@H]3c3ccccc3)CC2)CN(C(=O)c2ccccc2)C1 (relative stereo) [Example 7, (1-Benzoyl-3-{4-[(trans-2-phenylcyclopropyl)amino]piperidin-1-yl}azetidin-3-yl)acetonitrile] | ≤ 100 nM |
| COC(=O)N1CC(CC#N)(N2CCC(N[C@@H]3C[C@H]3c3ccccc3)CC2)C1 (relative stereo) [Example 8, Methyl 3-(cyanomethyl)-3-{4-[(trans-2-phenylcyclopropyl)amino]piperidin-1-yl}azetidine-1-carboxylate] | ≤ 100 nM |
| CS(=O)(=O)N1CC(CC#N)(N2CCC(N[C@@H]3C[C@H]3c3ccccc3)CC2)C1 (relative stereo) [Example 9, (1-(Methylsulfonyl)-3-{4-[(trans-2-phenylcyclopropyl)amino]piperidin-1-yl}azetidin-3-yl)acetonitrile] | ≤ 100 nM |
| N#CCC1(N2CCC(N[C@@H]3C[C@H]3c3ccccc3)CC2)CN(c2ncccc2C#N)C1 (relative stereo) [Example 10, 2-(3-(Cyanomethyl)-3-{4-[(trans-2-phenylcyclopropyl)amino]piperidin-1-yl}azetidin-1-yl)nicotinonitrile] | ≤ 100 nM |
| N#CCC1(N2CCC(N[C@@H]3C[C@H]3c3ccccc3)CC2)CN(c2ccc(C(=O)O)cc2C#N)C1 (relative stereo) [Example 11, 3-Cyano-4-(3-(cyanomethyl)-3-{4-[(trans-2-phenylcyclopropyl)amino]piperidin-1-yl}azetidin-1-yl)benzoic acid] | 100 to 500 nM |
| N#CCC1(N2CCC(N[C@@H]3C[C@H]3c3ccccc3)CC2)CN(c2ccccc2C#N)C1 (relative stereo) [Example 12, 2-(3-(Cyanomethyl)-3-{4-[(trans-2-phenylcyclopropyl)amino]piperidin-1-yl}azetidin-1-yl)benzonitrile] | ≤ 100 nM |
| N#CCC1(N2CCC(N[C@@H]3C[C@H]3c3ccccc3)CC2)CN(c2ccc(C#N)cc2)C1 (relative stereo) [Example 13, 4-(3-(Cyanomethyl)-3-{4-[(trans-2-phenylcyclopropyl)amino]piperidin-1-yl}azetidin-1-yl)benzonitrile] | ≤ 100 nM |
| N#CCC1(N2CC(CN[C@@H]3C[C@H]3c3ccccc3)C2)CCC1 (relative stereo) [Example 14, [1-(3-{[(trans-2-Phenylcyclopropyl)amino]methyl}azetidin-1-yl)cyclobutyl]acetonitrile] | ≤ 100 nM |
| CCS(=O)(=O)N1CC(CC#N)(N2CC(CN[C@@H]3C[C@H]3c3ccccc3)C2)C1 (relative stereo) [Example 15, (1′-(Ethylsulfonyl)-3-{[(trans-2-phenylcyclopropyl)amino]methyl}-1,3′-biazetidin-3′-yl)acetonitrile] | ≤ 100 nM |
| N#CCC1(N2CC(CN[C@@H]3C[C@H]3c3ccccc3)C2)CCNCC1 (relative stereo) [Example 16, [4-(3-{[(trans-2-Phenylcyclopropyl)amino]methyl}azetidin-1-yl)piperidin-4-yl]acetonitrile] | ≤ 100 nM |

| Compound | IC50 |
| --- | --- |
| CN1CCC(CC#N)(N2CC(CN[C@@H]3C[C@H]3c3ccccc3)C2)CC1 (relative stereo) [Example 17, [1-Methyl-4-(3-{[(trans-2-phenylcyclopropyl)amino]methyl}azetidin-1-yl)piperidin-4-yl]acetonitrile] | ≤ 100 nM |
| CC(=O)N1CCC(CC#N)(N2CC(CN[C@@H]3C[C@H]3c3ccccc3)C2)CC1 (relative stereo) [Example 18, [1-Acetyl-4-(3-{[(trans-2-phenylcyclopropyl)amino]methyl}azetidin-1-yl)piperidin-4-yl]acetonitrile] | ≤ 100 nM |
| N#CCC1(N2CC(CN[C@@H]3C[C@H]3c3ccccc3)C2)CCN(C(=O)c2ccc(F)cc2)CC1 (relative stereo) [Example 19, [1-(4-Fluorobenzoyl)-4-(3-{[(trans-2-phenylcyclopropyl)amino]methyl}azetidin-1-yl)piperidin-4-yl]acetonitrile] | ≤ 100 nM |
| CS(=O)(=O)N1CCC(CC#N)(N2CC(CN[C@@H]3C[C@H]3c3ccccc3)C2)CC1 (relative stereo) [Example 20, [1-(Methylsulfonyl)-4-(3-{[(trans-2-phenylcyclopropyl)amino]methyl}azetidin-1-yl)piperidin-4-yl]acetonitrile] | ≤ 100 nM |
| N#CCC1(N2CC(CN[C@@H]3C[C@H]3c3ccccc3)C2)CCN(S(=O)(=O)c2ccccc2)CC1 (relative stereo) [Example 21, [4-(3-{[(trans-2-Phenylcyclopropyl)amino]methyl}azetidin-1-yl)-1-(phenylsulfonyl)piperidin-4-yl]acetonitrile] | ≤ 100 nM |
| CCOC(=O)N1CCC(CC#N)(N2CC(CN[C@@H]3C[C@H]3c3ccccc3)C2)CC1 (relative stereo) [Example 22, Ethyl 4-(cyanomethyl)-4-(3-{[(trans-2-phenylcyclopropyl)amino]methyl}azetidin-1-yl)piperidine-1-carboxylate] | ≤ 100 nM |
| CN(C)C(=O)N1CCC(CC#N)(N2CC(CN[C@@H]3C[C@H]3c3ccccc3)C2)CC1 (relative stereo) [Example 23, 4-(Cyanomethyl)-N,N-dimethyl-4-(3-{[(trans-2-phenylcyclopropyl)amino]methyl}azetidin-1-yl)piperidine-1-carboxamide] | ≤ 100 nM |
| CC(C)NC(=O)N1CCC(CC#N)(N2CC(CN[C@@H]3C[C@H]3c3ccccc3)C2)CC1 (relative stereo) [Example 24, 4-(Cyanomethyl)-N-isopropyl-4-(3-{[(trans-2-phenylcyclopropyl)amino]methyl}azetidin-1-yl)piperidine-1-carboxamide] | ≤ 100 nM |
| N#CCC1(N2CC(CN[C@@H]3C[C@H]3c3ccccc3)C2)CCN(C(=O)Nc2ccc(F)cc2)CC1 (relative stereo) [Example 25, 4-(Cyanomethyl)-N-(4-fluorophenyl)-4-(3-{[(trans-2-phenylcyclopropyl)amino]methyl}azetidin-1-yl)piperidine-1-carboxamide] | ≤ 100 nM |
| N#CCC1(N2CC(CN[C@@H]3C[C@H]3c3ccccc3)C2)CNC1 (relative stereo) [Example 26, (3-{[(trans-2-Phenylcyclopropyl)amino]methyl}-1,3′-biazetidin-3′-yl)acetonitrile] | ≤ 100 nM |
| CN1CCC(N2CC(CN[C@@H]3C[C@H]3c3ccccc3)C2)CC1 (relative stereo) [Example 28, N-{[1-(1-Methylpiperidin-4-yl)azetidin-3-yl]methyl}-trans-2-phenylcyclopropanamine] | ≤ 100 nM |
| c1ccc([C@@H]2C[C@H]2NCC2CN(C3CCN(c4ccccc4)CC3)C2)cc1 (relative stereo) [Example 29, Trans-2-phenyl-N-{[1-(1-phenylpiperidin-4-yl)azetidin-3-yl]methyl}cyclopropanamine] | ≤ 100 nM |
| CCS(=O)(=O)N1CC(CC#N)(N2CCC(CN[C@@H]3C[C@H]3c3ccccc3)CC2)C1 (relative stereo) [Example 31, [1-(Ethylsulfonyl)-3-(4-{[(trans-2-phenylcyclopropyl)amino]methyl}piperidin-1-yl)azetidin-3-yl]acetonitrile] | 100 to 500 nM |
| N#CCC1(N2CCC(CN[C@@H]3C[C@H]3c3ccccc3)CC2)CCC1 (relative stereo) [Example 32, [1-(4-{[(trans-2-Phenylcyclopropyl)amino]methyl}piperidin-1-yl)cyclobutyl]acetonitrile] | ≤ 100 nM |
| N#CCC1(N2CCC(CN[C@@H]3C[C@H]3c3ccccc3)CC2)CNC1 (relative stereo) [Example 33, [3-(4-{[(trans-2-Phenylcyclopropyl)amino]methyl}piperidin-1-yl)azetidin-3-yl]acetonitrile] | ≤ 100 nM |
| N#CCC1(N2CCC(CN[C@@H]3C[C@H]3c3ccccc3)CC2)CN(c2ncccc2C#N)C1 (relative stereo) [Example 34, 2-[3-(Cyanomethyl)-3-(4-{[(trans-2-phenylcyclopropyl)amino]methyl}piperidin-1-yl)azetidin-1-yl]nicotinonitrile] | ≤ 100 nM |
